Test results from patent US20230085307A1, “PYRIDAZINONE COMPOUND AND HERBICIDE” (NISSAN CHEMICAL CORPORATION, priority 2019, published 2023).

System: chickweed
Assay: Test Example 5: herbicidal effect by foliage application, plastic box (Table 20, symbol P)
Assay type: in vivo, common chickweed (Stellaria media)
Details: foliage application, 320 g/ha, evaluated three weeks after application
In short: (§1)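 Foliar spray test: emulsion formulation diluted in water to a set application rate, sprayed onto 14-day-old plants raised in diluvial soil at 25° C to 30° C under glass. Both herbicidal effect and crop effect rated visually three weeks later.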

SMILES	herbicidal effect on P: chickweed
CCOc1cc(F)ccc1-c1sc2ccc(F)cc2c1-c1c(O)c(C)nn(C)c1=O [2-084]	5 (Herbicidal rate of 90% or more (almost completely withered))
CCCC(=O)Oc1c(C)nn(C)c(=O)c1-c1c(-c2ccc(F)cc2OCC)sc2ccc(F)cc12 [2-085]	5 (Herbicidal rate of 90% or more (almost completely withered))
Cc1nn(C)c(=O)c(-c2c(-c3ccc4c(c3)OCCO4)sc3ccc(F)cc23)c1O [2-092]	5 (Herbicidal rate of 90% or more (almost completely withered))

System: barnyard grass
Assay: Test Example 5: herbicidal effect by foliage application, plastic box (Table 20, symbol H)
Assay type: in vivo, barnyard grass (Echinochloa crus-galli)
Details: foliage application, 320 g/ha, evaluated three weeks after application
In short: as §1

SMILES	herbicidal effect on H: barnyard grass
CCOc1cc(F)ccc1-c1sc2ccc(F)cc2c1-c1c(O)c(C)nn(C)c1=O [2-084]	5 (Herbicidal rate of 90% or more (almost completely withered))
CCCC(=O)Oc1c(C)nn(C)c(=O)c1-c1c(-c2ccc(F)cc2OCC)sc2ccc(F)cc12 [2-085]	4 (Herbicidal rate of 70% or more and less than 90%)
Cc1nn(C)c(=O)c(-c2c(-c3ccc4c(c3)OCCO4)sc3ccc(F)cc23)c1O [2-092]	5 (Herbicidal rate of 90% or more (almost completely withered))

System: chickweed
Assay: Test Example 4: herbicidal effect by soil treatment (Table 19, symbol P)
Assay type: in vivo, common chickweed (Stellaria media)
Details: 320 g/ha
In short: (§2)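 Herbicidal effect was rated 3 weeks after treatment, using the scoring criteria of an earlier test. The compound, formulated as an emulsion and diluted in water to a set herbicide amount, had been sprayed uniformly on soil over freshly sown seeds. Growth took place in a greenhouse at 25° C. to 30° C.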

SMILES	herbicidal effect rating, P: chickweed
CCOc1cc(F)ccc1-c1sc2ccc(F)cc2c1-c1c(O)c(C)nn(C)c1=O [2-084]	4 (Herbicidal rate of 70% or more and less than 90%)
CCCC(=O)Oc1c(C)nn(C)c(=O)c1-c1c(-c2ccc(F)cc2OCC)sc2ccc(F)cc12 [2-085]	3 (Herbicidal rate of 40% or more and less than 70%)
Cc1nn(C)c(=O)c(-c2c(-c3ccc4c(c3)OCCO4)sc3ccc(F)cc23)c1O [2-092]	4 (Herbicidal rate of 70% or more and less than 90%)

System: green foxtail
Assay: Test Example 5: herbicidal effect by foliage application, plastic box (Table 20, symbol G)
Assay type: in vivo, green foxtail (Setaria viridis)
Details: foliage application, 320 g/ha, evaluated three weeks after application
In short: as §1

SMILES	herbicidal effect on G: green foxtail
CCOc1cc(F)ccc1-c1sc2ccc(F)cc2c1-c1c(O)c(C)nn(C)c1=O [2-084]	5 (Herbicidal rate of 90% or more (almost completely withered))
CCCC(=O)Oc1c(C)nn(C)c(=O)c1-c1c(-c2ccc(F)cc2OCC)sc2ccc(F)cc12 [2-085]	3 (Herbicidal rate of 40% or more and less than 70%)
Cc1nn(C)c(=O)c(-c2c(-c3ccc4c(c3)OCCO4)sc3ccc(F)cc23)c1O [2-092]	4 (Herbicidal rate of 70% or more and less than 90%)

System: persian speedwell
Assay: Test Example 5: herbicidal effect by foliage application, plastic box (Table 20, symbol R)
Assay type: in vivo, Persian speedwell (Veronica persica)
Details: foliage application, 320 g/ha, evaluated three weeks after application
In short: as §1

SMILES	herbicidal effect on R: persian speedwell
CCOc1cc(F)ccc1-c1sc2ccc(F)cc2c1-c1c(O)c(C)nn(C)c1=O [2-084]	5 (Herbicidal rate of 90% or more (almost completely withered))
CCCC(=O)Oc1c(C)nn(C)c(=O)c1-c1c(-c2ccc(F)cc2OCC)sc2ccc(F)cc12 [2-085]	4 (Herbicidal rate of 70% or more and less than 90%)
Cc1nn(C)c(=O)c(-c2c(-c3ccc4c(c3)OCCO4)sc3ccc(F)cc23)c1O [2-092]	5 (Herbicidal rate of 90% or more (almost completely withered))

System: redroot pigweed
Assay: Test Example 4: herbicidal effect by soil treatment (Table 19, symbol N)
Assay type: in vivo, redroot pigweed (Amaranthus retroflexus)
Details: 320 g/ha
In short: as §2

SMILES	herbicidal effect rating, N: redroot pigweed
CCOc1cc(F)ccc1-c1sc2ccc(F)cc2c1-c1c(O)c(C)nn(C)c1=O [2-084]	5 (Herbicidal rate of 90% or more (almost completely withered))
CCCC(=O)Oc1c(C)nn(C)c(=O)c1-c1c(-c2ccc(F)cc2OCC)sc2ccc(F)cc12 [2-085]	5 (Herbicidal rate of 90% or more (almost completely withered))
Cc1nn(C)c(=O)c(-c2c(-c3ccc4c(c3)OCCO4)sc3ccc(F)cc23)c1O [2-092]	4 (Herbicidal rate of 70% or more and less than 90%)

System: southern crabgrass
Assay: Test Example 5: herbicidal effect by foliage application, plastic box (Table 20, symbol F)
Assay type: in vivo, southern crabgrass (Digitaria ciliaris)
Details: foliage application, 320 g/ha, evaluated three weeks after application
In short: as §1

SMILES	herbicidal effect on F: southern crabgrass
CCOc1cc(F)ccc1-c1sc2ccc(F)cc2c1-c1c(O)c(C)nn(C)c1=O [2-084]	4 (Herbicidal rate of 70% or more and less than 90%)
CCCC(=O)Oc1c(C)nn(C)c(=O)c1-c1c(-c2ccc(F)cc2OCC)sc2ccc(F)cc12 [2-085]	5 (Herbicidal rate of 90% or more (almost completely withered))
Cc1nn(C)c(=O)c(-c2c(-c3ccc4c(c3)OCCO4)sc3ccc(F)cc23)c1O [2-092]	4 (Herbicidal rate of 70% or more and less than 90%)

System: oval-leafed pondweed
Assay: Test Example 1: herbicidal activity, application before weed generation under submerged conditions (Table 16, symbol C)
Assay type: in vivo, oval-leafed pondweed (Monochoria vaginalis)
Details: 320 g/ha applied herbicide
In short: (§3)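 Emulsion formulation, water-diluted to set dose, was put onto the flooded surface (4 cm depth, alluvial soil) the same day weeds were sown and 2.5-leaf rice transplanted. After 3 weeks at 25-30 °C under glass, each species was rated 0 (≤5% kill) to 5 (≥90% kill).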

SMILES	Herbicidal effect on C: oval-leafed pondweed (grade 0-5)
CCOc1cc(F)ccc1-c1sc2ccc(F)cc2c1-c1c(O)c(C)nn(C)c1=O [2-084]	2 (Herbicidal rate of 20% or more and less than 40%)
CCCC(=O)Oc1c(C)nn(C)c(=O)c1-c1c(-c2ccc(F)cc2OCC)sc2ccc(F)cc12 [2-085]	1 (Herbicidal rate of 5% or more and less than 20%)
Cc1nn(C)c(=O)c(-c2c(-c3ccc4c(c3)OCCO4)sc3ccc(F)cc23)c1O [2-092]	2 (Herbicidal rate of 20% or more and less than 40%)

System: oval-leafed pondweed
Assay: Test Example 2: herbicidal activity, application during weed generation under submerged conditions (Table 17, symbol C)
Assay type: in vivo, oval-leafed pondweed (Monochoria vaginalis)
Details: AAH 320 g/ha; application during weed generation, submerged conditions
In short: (§4)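 Herbicide emulsion, diluted with water to the chosen amount, is applied onto 4 cm floodwater over alluvial soil where the weeds were co-sown and raised at 25–30° C. Application timing: 1–2 leaves. Assessment: three weeks afterwards.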

SMILES	herbicidal effect rating, C: oval-leafed pondweed
CCOc1cc(F)ccc1-c1sc2ccc(F)cc2c1-c1c(O)c(C)nn(C)c1=O [2-084]	3 (Herbicidal rate of 40% or more and less than 70%)
CCCC(=O)Oc1c(C)nn(C)c(=O)c1-c1c(-c2ccc(F)cc2OCC)sc2ccc(F)cc12 [2-085]	3 (Herbicidal rate of 40% or more and less than 70%)
Cc1nn(C)c(=O)c(-c2c(-c3ccc4c(c3)OCCO4)sc3ccc(F)cc23)c1O [2-092]	4 (Herbicidal rate of 70% or more and less than 90%)

System: Japanese bulrush
Assay: Test Example 1: herbicidal activity, application before weed generation under submerged conditions (Table 16, symbol B)
Assay type: in vivo, Japanese bulrush (Schoenoplectus juncoides)
Details: 320 g/ha applied herbicide
In short: as §3

SMILES	Herbicidal effect on B: Japanese bulrush (grade 0-5)
CCOc1cc(F)ccc1-c1sc2ccc(F)cc2c1-c1c(O)c(C)nn(C)c1=O [2-084]	1 (Herbicidal rate of 5% or more and less than 20%)
CCCC(=O)Oc1c(C)nn(C)c(=O)c1-c1c(-c2ccc(F)cc2OCC)sc2ccc(F)cc12 [2-085]	3 (Herbicidal rate of 40% or more and less than 70%)
Cc1nn(C)c(=O)c(-c2c(-c3ccc4c(c3)OCCO4)sc3ccc(F)cc23)c1O [2-092]	3 (Herbicidal rate of 40% or more and less than 70%)

System: windgrass
Assay: Test Example 5: herbicidal effect by foliage application, plastic box (Table 20, symbol L)
Assay type: in vivo, windgrass (Apera spica-venti)
Details: foliage application, 320 g/ha, evaluated three weeks after application
In short: as §1

SMILES	herbicidal effect on L: windgrass
CCOc1cc(F)ccc1-c1sc2ccc(F)cc2c1-c1c(O)c(C)nn(C)c1=O [2-084]	4 (Herbicidal rate of 70% or more and less than 90%)
CCCC(=O)Oc1c(C)nn(C)c(=O)c1-c1c(-c2ccc(F)cc2OCC)sc2ccc(F)cc12 [2-085]	1 (Herbicidal rate of 5% or more and less than 20%)
Cc1nn(C)c(=O)c(-c2c(-c3ccc4c(c3)OCCO4)sc3ccc(F)cc23)c1O [2-092]	4 (Herbicidal rate of 70% or more and less than 90%)

System: green foxtail
Assay: Test Example 4: herbicidal effect by soil treatment (Table 19, symbol G)
Assay type: in vivo, green foxtail (Setaria viridis)
Details: 320 g/ha
In short: as §2

SMILES	herbicidal effect rating, G: green foxtail
CCOc1cc(F)ccc1-c1sc2ccc(F)cc2c1-c1c(O)c(C)nn(C)c1=O [2-084]	4 (Herbicidal rate of 70% or more and less than 90%)
CCCC(=O)Oc1c(C)nn(C)c(=O)c1-c1c(-c2ccc(F)cc2OCC)sc2ccc(F)cc12 [2-085]	3 (Herbicidal rate of 40% or more and less than 70%)
Cc1nn(C)c(=O)c(-c2c(-c3ccc4c(c3)OCCO4)sc3ccc(F)cc23)c1O [2-092]	2 (Herbicidal rate of 20% or more and less than 40%)

System: barnyard grass
Assay: Test Example 4: herbicidal effect by soil treatment (Table 19, symbol H)
Assay type: in vivo, barnyard grass (Echinochloa crus-galli)
Details: 320 g/ha
In short: as §2

SMILES	herbicidal effect rating, H: barnyard grass
CCOc1cc(F)ccc1-c1sc2ccc(F)cc2c1-c1c(O)c(C)nn(C)c1=O [2-084]	4 (Herbicidal rate of 70% or more and less than 90%)
CCCC(=O)Oc1c(C)nn(C)c(=O)c1-c1c(-c2ccc(F)cc2OCC)sc2ccc(F)cc12 [2-085]	3 (Herbicidal rate of 40% or more and less than 70%)
Cc1nn(C)c(=O)c(-c2c(-c3ccc4c(c3)OCCO4)sc3ccc(F)cc23)c1O [2-092]	3 (Herbicidal rate of 40% or more and less than 70%)

System: wild oat
Assay: Test Example 5: herbicidal effect by foliage application, plastic box (Table 20, symbol I)
Assay type: in vivo, wild oat (Avena fatua)
Details: foliage application, 320 g/ha, evaluated three weeks after application
In short: as §1

SMILES	herbicidal effect on I: wild oat
CCOc1cc(F)ccc1-c1sc2ccc(F)cc2c1-c1c(O)c(C)nn(C)c1=O [2-084]	4 (Herbicidal rate of 70% or more and less than 90%)
CCCC(=O)Oc1c(C)nn(C)c(=O)c1-c1c(-c2ccc(F)cc2OCC)sc2ccc(F)cc12 [2-085]	3 (Herbicidal rate of 40% or more and less than 70%)
Cc1nn(C)c(=O)c(-c2c(-c3ccc4c(c3)OCCO4)sc3ccc(F)cc23)c1O [2-092]	3 (Herbicidal rate of 40% or more and less than 70%)

System: wild oat
Assay: Test Example 4: herbicidal effect by soil treatment (Table 19, symbol I)
Assay type: in vivo, wild oat (Avena fatua)
Details: 320 g/ha
In short: as §2

SMILES	herbicidal effect rating, I: wild oat
CCOc1cc(F)ccc1-c1sc2ccc(F)cc2c1-c1c(O)c(C)nn(C)c1=O [2-084]	2 (Herbicidal rate of 20% or more and less than 40%)
CCCC(=O)Oc1c(C)nn(C)c(=O)c1-c1c(-c2ccc(F)cc2OCC)sc2ccc(F)cc12 [2-085]	2 (Herbicidal rate of 20% or more and less than 40%)
Cc1nn(C)c(=O)c(-c2c(-c3ccc4c(c3)OCCO4)sc3ccc(F)cc23)c1O [2-092]	0 (Herbicidal rate of 5% or less (almost no effect))

System: Japanese bulrush
Assay: Test Example 2: herbicidal activity, application during weed generation under submerged conditions (Table 17, symbol B)
Assay type: in vivo, Japanese bulrush (Schoenoplectus juncoides)
Details: AAH 320 g/ha; application during weed generation, submerged conditions
In short: as §4

SMILES	herbicidal effect rating, B: Japanese bulrush
CCOc1cc(F)ccc1-c1sc2ccc(F)cc2c1-c1c(O)c(C)nn(C)c1=O [2-084]	1 (Herbicidal rate of 5% or more and less than 20%)
CCCC(=O)Oc1c(C)nn(C)c(=O)c1-c1c(-c2ccc(F)cc2OCC)sc2ccc(F)cc12 [2-085]	3 (Herbicidal rate of 40% or more and less than 70%)
Cc1nn(C)c(=O)c(-c2c(-c3ccc4c(c3)OCCO4)sc3ccc(F)cc23)c1O [2-092]	3 (Herbicidal rate of 40% or more and less than 70%)
